Data on 16 compounds can be found in patent US20200360531A1, “ANTIBODY DRUG CONJUGATES (ADCS) WITH NAMPT INHIBITORS” (Bayer Aktiengesellschaft, priority 2018, published 2020).

The target of one assay is T1, human NAMPT (Homo sapiens, UniProt P43490).
T1 construct: N-terminally His6-tagged recombinant full length human NAMPT; His6 (N); made in house; host or cells: E. coli
Nature of the assay: NAMPT biochemical assay (hNAMPT IC50), cascade assay with NMNAT1 and NAD/NADH-Glo detection. The conditions noted are these: Table 2; replicate values on separate lines. An excerpt: NAMPT Biochemical Assay (hNAMPT IC50)
Nicotinamide phosphoribosyltransferase (NAMPT) inhibitory activity of compounds of the present invention was quantified employing a cascade assay as described in the following paragraphs. The assay couples the conversion of nicotinamide (NAM) to nicotinamide mononucleotide (NMN) by NAMPT with the conversion of NMN to […] adenine dinucleotide (NAD^+) by nicotinamide mononucleotide adenylyltransferase 1 (NMNAT1) and the subsequent quantification of the generated NAD^+ by a commercial detection kit (NAD/NADH-Glo™ Assay from Promega, #G9072).
N-terminally His6-tagged recombinant full length human NAMPT and N-terminally His6-tagged recombinant full length human NMNAT1, both expressed in E. coli and purified via Ni-NTA-affinity chromatography and consecutive size exclusion chromatography, were used as enzymes.
For the assay 50 nl of a 100 fold concentrated solution of the test compound in DMSO was pipetted into a white low volume 384 well microtiter plate (Greiner Bio-One, Frickenhausen, Germany), 2.5 μl of a solution of NAMPT in aqueous NMNAT1-containing assay buffer [50 mM Tris/HCl pH 7.5, 12 mM MgCl2, 0.6 mM adenosine-tri-phosphate (ATP), 1 nM NMNAT1, 0.02% (w/v) bovine serum albumin (Sigma-Aldrich #P7906), 0.001% (v/v) Tween-20 (Sigma-Aldrich #P7949)] were added and the mixture was incubated for 15 min at 22° C. to allow pre-binding of the test compounds to the enzyme before the start of the enzyme reaction. Then the reaction was started by the addition of 2.5 μl of a solution of NAM (300 nM=>final conc. in the 5 μl assay volume is 150 nM, Sigma-Aldrich #^47865) and 5-phosphorylribose-1-pyrophosphate pentasodium salt (PRPP, 1.2 μM=>final conc. in the 5 μl assay volume is 0.6 μM, Sigma-Aldrich P8296) in assay buffer and the resulting mixture was incubated for a reaction time of 20 min at 22° C. The concentration of NAMPT was adjusted depending of the activity of the enzyme lot and was chosen appropriate to have the assay in the linear range, typical final concentration in the 5 μl assay volume was 0.16 nM.
The resulting mixture was incubated 2 h at 22° C. to allow a steady-state of the detection system. Subsequently the generated luminescence was measured in a suitable luminescence reader, e.g. a Viewlux™ (Perkin-Elmer), and taken as a measure for the generated NAD^+.

A further assay deals with U251 MG. Description: Cell proliferation assay, Cell Titer Glo (CTG) method, U251 MG. The conditions noted are these: Homo sapiens, U-251, 72 h, Table 2. The format is cell-based. Here is the method: (§1) Cell Proliferation Assay for Nampt-ADCs and Nampt-SMOLs
(§2) Cell Titer Glo (CTG) Method
(§3) To this end, 75 μL per well CTG solution (Promega, catalog #G755B and G756B) was added to cells in sister plates, incubated for 10 min, and luminescence was measured on a VICTOR V instrument (Perkin Elmer). After incubation for either 72 or 96 hrs (Table 1) in the presence of test compounds, 100 μl per well CTG solution was added to all test wells, incubated for 10 min and luminescence was measured on a VICTOR V instrument. […] The DRC software is a Biobook Spreadsheet that was developed by Bayer AG and Bayer Business Services on the IDBS E-Workbook Suite platform (IDBS: ID Business Solutions Ltd., Guildford, UK).
On the technique in general: In ATP-based viability assays light output follows the ATP content of the culture.

Another assay deals with THP-1. Description: Cell proliferation assay, Cell Titer Glo (CTG) method, THP-1. The format is cell-based, human. The conditions noted are these: Homo sapiens, THP-1; Table 2; 72 h. Here is the method:
as §1, §2, §3

The next assay relates to A549 C4.4a B4. Nature of the assay: Cell proliferation assay, Cell Titer Glo (CTG) method, A549 C4.4a B4. The format is cell-based, human. As for the experimental part: as §1, §2, §3
A further assay has as its system MDA-MB-453. Description: Cell proliferation assay, Cell Titer Glo (CTG) method, MDA-MB-453. The format is cell-based. As for the experimental part: as §1, §2, §3
[1] abbreviates: Homo sapiens, A549, 72 h, Table 2, read-out: A549 C4.4a B4 72 h IC50.
Setting [2] is: Homo sapiens, MDA-MB-453, 72 h, Table 2, read-out: MDA-MB-453 72 h IC50.
Where [3] appears, read: Table 2, 72 h, read-out: A549 C4.4a B4 72 h IC50.

Several values for one entry are separate records, joined by “and”; a condition that tells them apart may be missing. Equal values may be shown once. Read-outs that look alike come from different tables or passages of the source.

T1 sequence (P43490 whole entry): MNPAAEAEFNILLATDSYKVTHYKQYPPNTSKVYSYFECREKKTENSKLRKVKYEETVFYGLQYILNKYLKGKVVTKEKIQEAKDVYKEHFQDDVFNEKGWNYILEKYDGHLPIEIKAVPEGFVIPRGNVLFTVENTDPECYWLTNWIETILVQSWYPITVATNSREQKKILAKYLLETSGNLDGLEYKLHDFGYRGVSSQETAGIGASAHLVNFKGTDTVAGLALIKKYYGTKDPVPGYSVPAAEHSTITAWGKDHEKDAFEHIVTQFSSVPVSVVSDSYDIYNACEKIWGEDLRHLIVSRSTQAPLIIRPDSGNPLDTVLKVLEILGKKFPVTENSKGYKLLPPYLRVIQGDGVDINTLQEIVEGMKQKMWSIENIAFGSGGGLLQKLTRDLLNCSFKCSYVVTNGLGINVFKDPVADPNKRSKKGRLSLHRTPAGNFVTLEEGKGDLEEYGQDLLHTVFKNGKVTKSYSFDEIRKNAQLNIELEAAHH

With `Cc1nnc(C2CC(c3ccc(NC(=O)N4Cc5ccncc5C4)cc3)=NN(CCCCCCN)C2=O)o1` (stereo not drawn) [Example 11, N-{4-[1-(6-Aminohexyl)-5-(5-methyl-1,3,4-oxadiazol-2-yl)-6-oxo-1,4,5,6-tetrahydropyridazin-3-yl]phenyl}-1,3-dihydro-2H-pyrrolo[3,4-c]pyridine-2-carboxamide], the IC50 at human NAMPT is 0.318 nM and 0.379 nM; in the assay with U251 MG it was 2.82 nM; in the assay with THP-1, less than 0.003 nM; in the assay on A549 C4.4a B4 (setting [1]), greater than 300 nM.

As to `O=C(Nc1ccc(-c2cc(-c3cccc4[nH]cnc34)c(=O)[nH]n2)cc1)N1Cc2ccncc2C1` [Example 26, N-{4-[5-(1H-Benzimidazol-4-yl)-6-oxo-1,6-dihydropyridazin-3-yl]phenyl}-1,3-dihydro-2H-pyrrolo[3,4-c]pyridine-2-carboxamide], the IC50 against human NAMPT is 0.167 nM and 0.207 nM; in the assay on MDA-MB-453 (setting [2]) it was less than 0.03 nM; in the assay with A549 C4.4a B4 (setting [1]), 111 nM.

Turning to `NCCCCCCN1N=C(c2ccc(NC(=O)N3Cc4ccncc4C3)cc2)CC(c2ccc3cccnc3c2)C1=O` (stereo not drawn) [Example 45, N-{4-[1-(6-Aminohexyl)-6-oxo-5-(quinolin-7-yl)-1,4,5,6-tetrahydropyridazin-3-yl]phenyl}-1,3-dihydro-2H-pyrrolo[3,4-c]pyridine-2-carboxamide hydrogen chloride], the IC50 was 0.223 nM and 0.241 nM and 0.277 nM and 0.343 nM on human NAMPT; 32 nM in the assay on A549 C4.4a B4 (setting [1]); 49.7 nM with A549 C4.4a B4 (setting [3]).

Turning to `NCCCCn1nc(-c2ccc(NC(=O)N3Cc4ccncc4C3)cc2)cc(-c2cccc3ncccc23)c1=O` [Example 5, N-{4-[1-(4-Aminobutyl)-6-oxo-5-(quinolin-5-yl)-1,6-dihydropyridazin-3-yl]phenyl}-1,3-dihydro-2H-pyrrolo[3,4-c]pyridine-2-carboxamide], the IC50 at human NAMPT is 0.147 nM and 0.176 nM.

For the compound “N-[2 or 3-{[(2R)-2-amino-2-carboxyethyl]sulfanyl}-3-carboxypropanoyl]glycyl-N-{6-[3-{4-[(1,3-dihydro-2H-pyrrolo[3,4-c]pyridine-2-carbonyl)amino]phenyl}-6-oxo-5-(quinolin-5-yl)-5,6-dihydropyridazin-1(4H)-yl]hexyl}-N^6-(26-oxo-2,5,8,11,14,17,20,23-octaoxahexacosan-26-yl)-L-lysinamide [Example 36M]”, the IC50 is 1.03 nM and 1.05 nM against human NAMPT; 18 nM with MDA-MB-453 (Table 2, 72 h, read-out: MDA-MB-453 72 h IC50); 299 nM in the assay with A549 C4.4a B4 (setting [3]).

Turning to `O=C(Nc1ccc(C2=NNC(=O)[C@@](c3cccc4ncccc34)(C(F)(F)F)C2)cc1)N1Cc2ccncc2C1` [Example 12, N-{4-[(5R)-6-oxo-5-(quinolin-5-yl)-5-(trifluoromethyl)-1,4,5,6-tetrahydropyridazin-3-yl]phenyl}-1,3-dihydro-2H-pyrrolo[3,4-c]pyridine-2-carboxamide], the IC50 against human NAMPT is 0.539 nM and 0.551 nM; with U251 MG, less than 0.03 nM; in the assay with THP-1, less than 0.003 nM; in the assay with A549 C4.4a B4 (setting [1]), 0.472 nM.

Turning to `O=C(Nc1ccc(C2=NNC(=O)C(c3cccc4ncccc34)(C(F)(F)F)C2)cc1)N1Cc2ccncc2C1` (racemic) [Example 14, N-{4-[6-oxo-5-(quinolin-5-yl)-5-(trifluoromethyl)-1,4,5,6-tetrahydropyridazin-3-yl]phenyl}-1,3-dihydro-2H-pyrrolo[3,4-c]pyridine-2-carboxamide], the IC50 against human NAMPT is 0.317 nM and 0.387 nM.

Turning to `NCCCCCCN1N=C(c2ccc(NC(=O)N3Cc4ccncc4C3)cc2)CC(c2cccc3ncccc23)(C(F)(F)F)C1=O` (stereo not drawn) [Example 15, N-{4-[1-(6-Aminohexyl)-6-oxo-5-(quinolin-5-yl)-5-(trifluoromethyl)-1,4,5,6-tetrahydropyridazin-3-yl]phenyl}-1,3-dihydro-2H-pyrrolo[3,4-c]pyridine-2-carboxamide], the IC50 on human NAMPT is 0.309 nM and 0.363 nM; in the assay on MDA-MB-453 (setting [2]), less than 0.03 nM.

Regarding `O=C(Nc1ccc(-c2cc(-c3cccc4ncccc34)c(=O)[nH]n2)cc1)N1Cc2ccncc2C1` [Example 4, N-{4-[6-Oxo-5-(quinolin-5-yl)-1,6-dihydropyridazin-3-yl]phenyl}-1,3-dihydro-2H-pyrrolo[3,4-c]pyridine-2-carboxamide], the IC50 against human NAMPT was 1.16 nM and 1.22 nM; in the assay with U251 MG, 0.146 nM; in the assay with THP-1, 0.0171 nM; in the assay with A549 C4.4a B4 (setting [1]), greater than 300 nM.

Regarding `N[C@@H](CSC1CC(=O)N(CCCCCC(=O)NCCCCCCn2nc(-c3ccc(NC(=O)N4Cc5ccncc5C4)cc3)cc(-c3cccc4ncccc34)c2=O)C1=O)C(=O)O` (stereo partly drawn) [Example 29M, S-{1-[6-({6-[3-{4-[(1,3-Dihydro-2H-pyrrolo[3,4-c]pyridine-2-carbonyl)amino]phenyl}-6-oxo-5-(quinolin-5-yl)pyridazin-1(6H)-yl]hexyl}amino)-6-oxohexyl]-2,5-dioxopyrrolidin-3-yl}-L-cysteine], the IC50 against human NAMPT is 0.441 nM and 0.637 nM.

For the compound `O=C1NN=C(c2ccc(NC(=O)N3Cc4ccncc4C3)cc2)CC1c1cccc2ncccc12` (stereo not drawn) [Example 1, N-{4-[6-Oxo-5-(quinolin-5-yl)-1,4,5,6-tetrahydropyridazin-3-yl]phenyl}-1,3-dihydro-2H-pyrrolo[3,4-c]pyridine-2-carboxamide], the IC50 against human NAMPT is 1.06 nM and 1.21 nM and 1.26 nM and 1.39 nM; with THP-1 it was less than 0.003 nM.

As to “[(32S,39S)-39-carboxy-32-({6-[(5S)-3-{4-[(1,3-dihydro-2H-pyrrolo[3,4-c]pyridine-2-carbonyl)amino]phenyl}-6-oxo-5-(quinolin-5-yl)-5,6-dihydropyridazin-1(4H)-yl]hexyl}carbamoyl)-26,34,37-trioxo-2,5,8,11,14,17,20,23-octaoxa-27,33,36-triazanonatriacontan-39-yl]sulfanediyl [Example 36Db]”, the IC50 with MDA-MB-453 (Table 3 (ADCs), DSMZ cells, 72 h, read-out: MDA-MB-453 DSMZ 72 h IC^50) came out at 7.24 nM; in the assay with A549 C4.4a B4 (Table 3 (ADCs), 72 h, read-out: A549 C4.4a 72 h IC^50), 3.13 nM.

Consider “2 or 3-{[(2R)-2-Amino-2-carboxyethyl]sulfanyl}-4-{[2-({6-[3-{4-[(1,3-dihydro-2H-pyrrolo[3,4-c]pyridine-2-carbonyl)amino]phenyl}-6-oxo-5-(quinolin-5-yl)pyridazin-1(6H)-yl]hexyl}amino)-2-oxoethyl]amino}-4-oxobutanoic Acid [Example 31M]”, for which, at human NAMPT, the IC50 was 0.26 nM and 0.311 nM.

For the compound `NCCCCN1N=C(c2ccc(NC(=O)N3Cc4ccncc4C3)cc2)CC(c2cccc3ncccc23)C1=O` (stereo not drawn) [Example 2, N-{4-[1-(4-Aminobutyl)-6-oxo-5-(quinolin-5-yl)-1,4,5,6-tetrahydropyridazin-3-yl]phenyl}-1,3-dihydro-2H-pyrrolo[3,4-c]pyridine-2-carboxamide], the IC50 at human NAMPT is 0.35 nM and 0.365 nM.

For the compound `O=C(Nc1ccc(-c2cc(-c3ccc4[nH]ncc4c3)c(=O)n(CC(F)(F)F)n2)cc1)N1Cc2ccncc2C1` [Example 22, N-{4-[5-(1H-indazol-5-yl)-6-oxo-1-(2,2,2-trifluoroethyl)-1,6-dihydropyridazin-3-yl]phenyl}-1,3-dihydro-2H-pyrrolo[3,4-c]pyridine-2-carboxamide], the IC50 against human NAMPT is 0.111 nM and 0.144 nM; with MDA-MB-453 (setting [2]) it was less than 0.03 nM; in the assay on A549 C4.4a B4 (setting [1]) it was 4.88 nM.

For `NCCCCCCN1N=C(c2ccc(NC(=O)N3Cc4ccncc4C3)cc2)CC(c2cccc3ncccc23)C1=O` (stereo not drawn) [Example 3, N-{4-[1-(6-Aminohexyl)-6-oxo-5-(quinolin-5-yl)-1,4,5,6-tetrahydropyridazin-3-yl]phenyl}-1,3-dihydro-2H-pyrrolo[3,4-c]pyridine-2-carboxamide], at human NAMPT, the IC50 is 0.207 nM and 0.214 nM.
